Test results published in ChEMBL document CHEMBL1201862, “PubChem BioAssay data set” (2004).
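Protocol summary: plate cells (96-well), add compound at 5 concentrations, incubate 48 h, interpolate endpoints linearly. GI50 is the concentration that inhibits growth by half.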 Calls of active or inactive are those of the source. No stated cut-off is given here; in the data, active = GI50 up to about 1.1 µM and inactive = higher.

Key:
Assay in all cases: NCI anticancer screen, dose series, 48 h
[1] = tested on: SW-620
[2] = tested on: SK-OV-3
[3] = tested on: SK-MEL-28
[4] = tested on: 786-0
[5] = tested on: HL-60
[6] = tested on: MOLT-4
[7] = tested on: OVCAR-8
[8] = tested on: SK-MEL-5
[9] = tested on: SNB-19
[10] = tested on: LOX IMVI
[11] = tested on: M14
[12] = tested on: ACHN
[13] = tested on: OVCAR-4
[14] = tested on: HT-29
[15] = tested on: RPMI-8226
[16] = tested on: SF-539
[17] = tested on: MDA-MB-231
[18] = tested on: PC-3
[19] = tested on: BT-549

Measured: GI50

NNC(=O)C(=O)N/N=C1\CCC(=O)CC1C(=O)CCC(=O)Nc1ccc(Cl)cc1 (configuration not stated)
inactive: [1] > 100 µM | [2] > 100 µM | [3] > 100 µM | [4] > 100 µM | [5] > 100 µM | [6] > 100 µM | [7] > 100 µM | [8] > 100 µM | [9] > 100 µM | [10] > 100 µM | [11] > 100 µM | [12] > 100 µM | [13] > 100 µM | [14] > 100 µM | [15] > 100 µM | [16] > 100 µM

S=C(Nc1ccccc1)Nc1[nH]c(=S)sc1-c1nc2ccccc2[nH]1
inactive: [1] > 100 µM | [2] 37.9 µM | [3] 73.5 µM | [4] 34.2 µM | [5] > 100 µM | [6] > 100 µM | [7] 48.8 µM | [8] 28.8 µM | [9] 36.9 µM | [10] 61.4 µM | [11] 49.8 µM | [12] 72.4 µM | [13] 15.2 µM | [14] > 100 µM | [15] 97.3 µM | [16] 28.6 µM

N#Cc1nc(-c2cccnc2)oc1N
inactive: [1] > 100 µM | [2] > 100 µM | [3] > 100 µM | [4] > 100 µM | [5] > 100 µM | [6] 74 µM | [17] > 100 µM | [8] > 100 µM | [9] > 100 µM | [10] > 100 µM | [12] > 100 µM | [13] > 100 µM | [14] > 100 µM | [15] > 100 µM | [18] > 100 µM

COc1cc(C2C3=C(NC(=O)C2C#N)c2ccc4ccccc4c2OCC3)cc(OC)c1OC (configuration not stated)
inactive: [1] 78.7 µM | [2] 17.2 µM | [3] 18.3 µM | [4] 31.5 µM | [5] 27 µM | [6] 34.2 µM | [7] 86.7 µM | [19] 17.3 µM | [8] 28.2 µM | [9] 28.3 µM | [11] 50 µM | [12] 16.6 µM | [13] 48 µM | [14] 33 µM | [15] 7.83 µM | [18] 49.3 µM | [16] 18.7 µM

C/C(CC(=O)Nc1cc(C)ccc1C)=N\NC(=O)c1ccncc1
inactive: [1] > 100 µM | [2] > 100 µM | [3] > 100 µM | [4] > 100 µM | [5] > 100 µM | [6] > 100 µM | [7] > 100 µM | [8] > 100 µM | [10] > 100 µM | [11] > 100 µM | [14] > 100 µM | [15] > 100 µM | [16] > 100 µM

Cc1ccc(S(=O)(=O)N(CC(O)COc2ccccc2)c2ccc(F)cc2F)cc1 (configuration not stated)
inactive: [1] 16.5 µM | [2] 18.7 µM | [3] 15.8 µM | [4] 16.8 µM | [5] 15.7 µM | [6] 22.8 µM | [7] 17.3 µM | [17] 17.4 µM | [8] 14.7 µM | [9] 18.1 µM | [10] 14.2 µM | [11] 17.3 µM | [12] 16.5 µM | [13] 11.6 µM | [14] 14.9 µM | [15] 13.5 µM | [18] 12.8 µM | [16] 16.4 µM

OCSc1nn(CO)c(=S)s1
inactive: [1] 28.1 µM | [2] 34.4 µM | [3] 21.7 µM | [4] 23.1 µM | [5] 18 µM | [6] 23.4 µM | [7] 10.5 µM | [17] 28.1 µM | [8] 31.8 µM | [9] 25.8 µM | [10] 18 µM | [11] 20.1 µM | [12] 25.1 µM | [13] 18.5 µM | [14] 28.1 µM | [15] 25.4 µM | [18] 24.4 µM | [16] 23.4 µM

Cc1cc2c(cc1C)[n+]([O-])c(NCCCN(C)C)c(C#N)[n+]2[O-]
inactive: [1] > 100 µM | [2] 81.5 µM | [3] > 100 µM | [4] > 100 µM | [5] 45.3 µM | [6] 22.7 µM | [7] > 100 µM | [19] 79.1 µM | [9] > 100 µM | [10] > 100 µM | [11] > 100 µM | [12] > 100 µM | [13] > 100 µM | [14] 61.5 µM | [15] 16.1 µM | [18] > 100 µM | [16] > 100 µM

COc1ccc(/C=C2/C(C)=NN(c3cccc(Cl)c3)/C2=N/c2nc3ccccc3s2)cc1
inactive: [1] 22.7 µM | [2] 24 µM | [3] 20.6 µM | [4] 20.3 µM | [5] 20.7 µM | [6] 24.9 µM | [7] 22.6 µM | [17] 24.7 µM | [8] 16.6 µM | [10] 18 µM | [11] 25.1 µM | [12] 20.6 µM | [13] 37.4 µM | [14] 19.5 µM | [15] 22.7 µM | [18] 19 µM | [16] 26.7 µM

CCCCCCc1ccc(CCCCCCCC(=O)O)o1
inactive: [1] > 100 µM | [2] > 100 µM | [3] > 100 µM | [4] > 100 µM | [6] 16.4 µM | [7] > 100 µM | [19] > 100 µM | [8] > 100 µM | [9] > 100 µM | [10] > 100 µM | [11] > 100 µM | [12] 62.4 µM | [13] > 100 µM | [14] 46.2 µM | [15] 39.6 µM | [18] > 100 µM | [16] > 100 µM

C=C1C2CC(OC(C)=O)C3(C)C(c4ccoc4)OC(=O)[C@@H](O)[C@]13OC1C[C@H](OC(C)=O)C(C)(C)[C@H](C(O)C(=O)OC)[C@]12C (some centres not stated)
inactive: [1] > 100 µM | [2] > 100 µM | [3] > 100 µM | [4] > 100 µM | [5] > 100 µM | [6] > 100 µM | [7] > 100 µM | [8] > 100 µM | [9] > 100 µM | [10] > 100 µM | [11] > 100 µM | [12] > 100 µM | [13] > 100 µM | [14] > 100 µM | [15] > 100 µM | [16] > 100 µM

COC(C/C(=C/CO[Si](C(C)C)(C(C)C)C(C)C)C(=O)Nc1ccccc1I)OC
inactive: [1] 45.4 µM | [2] 28.2 µM | [3] 59.4 µM | [4] 24.1 µM | [6] 11.8 µM | [7] 33 µM | [17] 12.5 µM | [8] 26.5 µM | [9] 18.4 µM | [10] 16 µM | [11] 29.9 µM | [12] 37.8 µM | [13] 63.8 µM | [14] 29.6 µM | [15] 6.15 µM | [18] 18.9 µM | [16] 19.8 µM
